Results from patent US7202278B2, “4-fluoro-N-indan-2-yl benzamide and its use as a pharmaceutical” (Sanofi-Aventis Deutschland GmbH, priority 2001, dated 2007).

How the values were obtained:
ApoE deficient mice [1] = assay: Prevention of atherosclerotic plaque formation in chronic treatment; format: in vivo
Excerpt: (§1) ApoE and eNOS deficient mice (C57BL/6J background, Jackson Laboratory, Bar Harbor, Me.) were used. All animals were 10–12 weeks of age and weighed 22 to 28 g. Three days before surgery, mice were divided into 4 groups (apoE control, n=10–12; apoE with compound (I), n=10–12; eNOS control, n=10–12; eNOS with compound (I), n=10–12) and received either a standard rodent chow (containing 4% fat and 0.001% cholesterol; in the following designated as placebo group) or a standard rodent chow+compound (I) (10 or 30 mg/kg/d p.o.).
ApoE deficient mice were treated for 16 weeks with compound (I) pressed in chow and finally sacrificed. Aortas were removed from each mouse, fixed in formalin and embedded in paraffin. Plaque formation was measured via lipid lesions formation in the aortas (from aortic arch to diaphragm) and was analyzed by oil red O staining. For quantifying the effect of the respective compound on vascular eNOS expression the […] were used in this experiment.

ApoE deficient mice [2] = assay: Anti-hypertensive effect in ApoE knockout mice (tail-cuff); format: in vivo; conditions: 30 mg/kg/d p.o. in chow, after 4 months treatment, placebo 115±2 mmHg, p<0.05
Excerpt: as §1
(§2) Blood-pressure was determined in conscious mice using a computerized tail-cuff system.

eNOS deficient mice [3] = assay: Femoral artery cuff model in eNOS deficient mice; format: in vivo; conditions: similar setup
Excerpt: as §1
After 3 days treatment of ApoE deficient mice with compound (I), (10 mg/kg/d pressed in chow), animals were anesthetized with an intraperitoneal injection of pentobarbital (60 mg/kg) followed by an intramuscular injection of xylazin (2 mg/kg) and a cuff was placed around the femoral artery as described in Moroi et at. (J Clin Invest. 101:1225–32, 1998). Briefly, the left femoral artery was dissected. […] The aortas were taken for determination of vascular eNOS expressions by quantitative western blotting. […] For each cross section the area of the lumen, the neointima and the media were determined. […] The ratio between the area of the neointima and the area of the media was expressed as the neointima/media ratio.

eNOS protein expression = assay: eNOS protein detection in HUVEC by quantitative Western blotting; format: cell-based, human; conditions: 18 h incubation
Description: The effect of the compound (I) on eNOS-transcription was confirmed in a second assay based on eNOS protein detection. Primary human umbilical vein cord endothelial cells (HUVEC) were isolated and cultivated according to standard procedures. Confluent cells were incubated with compound (I) for 18 h and the effect on eNOS protein expression determined by a quantitative Western blotting procedure. After incubation of compound (I), HUVEC were lysed in ice-cold lysis buffer containing 10 mM Tris-HCl, pH 8.0, 1% SDS and protease inhibitors. The lysate was subjected to a standard denaturating polyacrylamid gel electropheresis and blotted to nitrocellulose membranes. Using a specific primary monoclonal antibody (Transduction Laboratories, UK) and alkaline phosphatase labelled secondary antibody (Jackson Labs), a specific eNOS protein band was visualized and quantified based on a chemifluorescence detection method.

ApoE deficient mice [4] = assay: Inhibition of neointima formation and atherogenesis (femoral artery cuff), ApoE deficient mice; format: in vivo
Excerpt: as §1
After 3 days treatment of ApoE deficient mice with compound (I), (10 mg/kg/d pressed in chow), animals were anesthetized with an intraperitoneal injection of pentobarbital (60 mg/kg) followed by an intramuscular injection of xylazin (2 mg/kg) and a cuff was placed around the femoral artery as described in Moroi et at. (J Clin Invest. 101:1225–32, 1998). Briefly, the left femoral artery was dissected. A non-occlusive 2.0 mm polyethylene cuff made of PE-50 tubing (inner diameter 0.56 mm, outer diameter 0.965 mm, Becton Dickinson, Mountain View, Calif.) was placed around the artery and tied in place with two 7–0 sutures. The right femoral artery was isolated from the surrounding tissues but a cuff was not placed. Treatment with compound (I) was continued for 14 days after surgery. Then the animals were sacrificed. The aortas were taken for determination of vascular eNOS expressions by quantitative western blotting. Both femoral arteries were harvested, fixed in formalin and embedded in paraffin. 20 cross sections (10 μm) were cut from the cuffed portion of the left femoral artery and from the corresponding segment of the right artery. Sections were subjected to standard hematoxylin and eosin staining. Morphometric analyses were performed using an image analysis computer program (LeicaQWin, Leica Imaging Systems, Cambridge, GB). For each cross section the area of the lumen, the neointima and the media were determined. […] The ratio between the area of the neointima and the area of the media was expressed as the neointima/media ratio.

eNOS deficient mice [5] = assay: Blood pressure in eNOS deficient mice (tail-cuff); format: in vivo; conditions: similar dosing, after 4 weeks treatment
Excerpt: as §1, §2

eNOS promoter = assay: Activation of eNOS transcription (eNOS promoter-luciferase reporter); format: cell-based, human; conditions: 18 h incubation
Description: Activation of eNOS transcription was measured as described in detail in Li et al. “Activation of protein kinase C alpha and/or epsilon enhances transcription of the human endothelial nitric oxide synthase gene”, Mol. Pharmacol. 1998, 53: 630–637.
Briefly, a 3.5 kB long fragment 5′ of the starting codon of the eNOS gene was cloned, sequenced and cloned in firefly luciferase expression plasmids to monitor activation of the eNOS promoter by reporter gene activity. A human endothelial cell line stable transfected and expressing this promoter-reporter construct was used for compound testing. Cells were incubated for 18 h with the compound (I).
Prior to incubation of the cells, the compound (I) was dissolved in sterile DMSO. A final concentration of 0.5% DMSO in complete medium was obtained. Induction of reporter gene expression in these cells was measured using a standard luciferase assay system (Promega, Cat. No E150) according to the manufacturer's instructions. Luciferase induction in cells incubated with compound (I) were compared to those incubated with solvent alone. The ratio of both activities (transcription induction ratio, TIR) was plotted as a function of compound concentration. […] EC50 values of transcription induction ratios as a function of compound concentration were determined graphically.

ApoE deficient mice [6] = assay: Improvement of coronary function in diseased ApoE deficient mice (isolated working heart); format: in vivo
Description: Old Male wild-type C57BL/6J mice (Charles River Wiga GmbH, Sulzfeld), and apolE deficient mice (C57BL/6J background, Jackson Laboratory, Bar Harbor, Me.) 6 month of age and weighing 28 to 36 g were used in the experiments. Mice were divided into 3 groups (C57BL/6, n=8; apoE control, n=8; apoE with compound (I), n=8) and received for 8 weeks either a standard rodent chow (containing 4% fat and 0.001% cholesterol) or a standard rodent chow+compound (I) (30 mg/kg/d p.o.).
Mice were anesthetized with sodium pentobarbitone (100 mg/kg i.p.), and the hearts were rapidly excised and placed into ice-cold perfusion buffer. The aorta was cannulated and connected to a perfusion apparatus (HUGO SACHS ELECTRONICS, Freiburg, Germany) which was started immediately at a constant perfusion pressure of 60 mm Hg. Hearts were perfused in a retrograde fashion with modified Krebs bicarbonate buffer, equilibrated with 95% O2 and 5% CO2 and maintained at 37.5° C.
A beveled small tube (PE 50) was passed through a pulmonary vein into the left ventricle and pulled through the ventricular wall, anchored in the apex by a fluted end, and connected to a tip-micromanometer (Millar 1.4 French). The left atrium was cannulated through the same pulmonary vein and the heart switched to the working mode with a constant preload pressure of 10 mm Hg and an afterload pressure of 60 mm Hg. Aortic outflow and atrial inflow were continuously measured using ultrasonic flow probes (HSE/Transonic Systems Inc.). Coronary flow was calculated as the difference between atrial flow and aortic flow. All hemodynamic data were digitized at a sampling rate of 1000·Hz and recorded with a PC using specialized software (HEM, Notocord).
Hearts were allowed to stabilize for 30 min. All functional hemodynamic data were measured during steady state, and during volume- and pressure loading.
Left ventricular function curves were constructed by varying pre-load pressure. For acquisition of preload curves, afterload was set at 60 mm Hg and preload was adjusted in 5 mm Hg steps over a range of 5 to 25 mm Hg. […]

[7] = isolated hearts of ApoE deficient mice, 30 mg/kg/d p.o., 8 weeks

Structure (SMILES): O=C(NC1Cc2ccccc2C1)c1ccc(F)cc1 [compound (I), 4-fluoro-N-indan-2-yl benzamide]
- overall plaque size in % of total surface (ApoE deficient mice [1]; 16 weeks treatment in chow, aortas, oil red O staining, placebo 13.3±2.6): 5.2±1%
- vascular eNOS expression up-regulation (ApoE deficient mice [1]; 16 weeks treatment, femoral arteries): 1.75 fold
- blood pressure (ApoE deficient mice [2]): 92±5 mmHg
- effect on neointima formation / eNOS expression (eNOS deficient mice [3]): No effect
- effect on eNOS protein expression (eNOS protein expression): confirmed
- reduction of neo-intima formation (factor) (ApoE deficient mice [4]; 10 mg/kg/d in chow, 3 days before to 14 days after cuff surgery): 2
- neointima to media ratio (ApoE deficient mice [4]; 10 mg/kg/d in chow, cuffed femoral artery, placebo 0.39±0.07): 0.170±0.04
- vascular eNOS expression enhanced by a factor (ApoE deficient mice [4]; 10 mg/kg/d, aortas, quantitative western blotting): 2.1
- blood pressure reduction (eNOS deficient mice [5]): No blood pressure reduction could be observed
- EC50 (eNOS promoter; human endothelial cell line stably transfected with eNOS promoter-luciferase construct, read-out: EC50 of transcription induction ratio): 800 nM
- TIR(max) (maximum transcription induction ratio) (eNOS promoter; human endothelial cell line, ratio versus solvent alone): 4.10
- coronary flow (ApoE deficient mice [6]; isolated hearts of ApoE deficient mice treated 8 weeks with 30 mg/kg/d p.o., wildtype 4.95 ml/min): 5 mL/min
- incidence of ventricular arrhythmias (ApoE deficient mice [6]; [7]): reduced
- pre-load dependent coronary flow (ApoE deficient mice [6]; [7]): improved
